Measurements reported in patent US9890147B2 (BAYER PHARMA AKTIENGESELLSCHAFT, priority 2012, dated 2018).
pIC50: −log10 of the molar value.

Legend:
BRD4 (BD1) = molecular target: T1, BRD4 (BD1) (Homo sapiens, UniProt O60885); experiment: Binding assay BRD4/acetylated peptide H4 (TR-FRET protein-protein interaction assay)
T1 construct: with relatively long constructs also being possible, preferably amino acids 44-168; made in house; host or cells: E. coli
How it was run: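 Displacement of biotin-Ac-H4 peptide from His6-tagged BRD4(BD1), final usually 10 nM, read as Eu-streptavidin to anti-His-XL665 TR-FRET (665/620 nm). Compounds tested at 11 doses up to 20 μM in duplicate, pH 7.5 HEPES, 22 °C then 4 °C incubation; IC50 by 4-parameter regression.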

MOLM-13 cells = experiment: Cell proliferation assay (alamarBlue), MOLM-13; type: cell-based; settings: Homo sapiens, 96 hours incubation, inhibition of cell proliferation
How it was run: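 IC50 = concentration giving 50% growth inhibition relative to buffer-treated cells, after subtracting baseline fluorescence taken before dosing. Compound applied at 1E-5 to 1E-8 M for 96 h at 37 °C in RPMI1640 with 10% FCS; alamarBlue signal at 530/590 nm.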

SMILES | pIC50 (BRD4 (BD1)) | pIC50 (MOLM-13 cells)
CNC(=O)N1N=C(c2ccc(-c3cccnc3OC)cc2)c2cc(OC)c(OC)cc2CC1C (racemic) [Example 76, (±)-7,8-dimethoxy-1-[4-(2-methoxypyridin-3-yl)phenyl]-N,4-dimethyl-4,5-dihydro-3H-2,3-benzodiazepine-3-carboxamide] | 7.30 | 6.12
CNC(=O)N1N=C(c2ccc(N3CCN(C)CC3=O)cc2)c2cc(OC)c(OC)cc2C[C@H]1C [Example 43.2, (4R)-7,8-dimethoxy-N,4-dimethyl-1-[4-(4-methyl-2-oxopiperazin-1-yl)phenyl]-4,5-dihydro-3H-2,3-benzodiazepine-3-carboxamide] | 5.34 | 5.01
CNC(=O)N1N=C(c2ccc(N3CCOCC3=O)cc2)c2cc(OC)c(OC)cc2CC1C (racemic) [Example 40, (±)-7,8-dimethoxy-N,4-dimethyl-1-[4-(3-oxomorpholin-4-yl)phenyl]-4,5-dihydro-3H-2,3-benzodiazepine-3-carboxamide] | 6.55 | 5.83
CNC(=O)N1N=C(c2ccc(-c3ccnn3C)cc2)c2cc(OC)c(OC)cc2CC1C (racemic) [Example 101, (±)-7,8-dimethoxy-N,4-dimethyl-1-[4-(1-methyl-1H-pyrazol-5-yl)phenyl]-4,5-dihydro-3H-2,3-benzodiazepine-3-carboxamide] | 7.22 | 6.19
CNC(=O)N1N=C(c2ccc(-c3cnccc3C)cc2)c2cc(OC)c(OC)cc2CC1C (racemic) [Example 82, (±)-7,8-dimethoxy-N,4-dimethyl-1-[4-(4-methylpyridin-3-yl)phenyl]-4,5-dihydro-3H-2,3-benzodiazepine-3-carboxamide] | 7.10 | 6.26
CNC(=O)N1N=C(c2ccc(-c3ccc([N+](=O)[O-])cc3)cc2)c2cc(OC)c(OC)cc2CC1C (racemic) [Example 102, (±)-7,8-dimethoxy-N,4-dimethyl-1-(4′-nitrobiphenyl-4-yl)-4,5-dihydro-3H-2,3-benzodiazepine-3-carboxamide] | 7.05 | 6.02
CNC(=O)N1N=C(c2ccc(-c3ccccc3C(F)(F)F)cc2)c2cc(OC)c(OC)cc2CC1C (racemic) [Example 91, (±)-7,8-dimethoxy-N,4-dimethyl-1-[2′-(trifluoromethyl)biphenyl-4-yl]-4,5-dihydro-3H-2,3-benzodiazepine-3-carboxamide] | 6.47 | 6.26
CNC(=O)N1N=C(c2ccc(-c3ccc(C(=O)N4CCOCC4)cc3)cc2)c2cc(OC)c(OC)cc2CC1C (racemic) [Example 79, (±)-7,8-dimethoxy-N,4-dimethyl-1-[4′-(morpholin-4-ylcarbonyl)biphenyl-4-yl]-4,5-dihydro-3H-2,3-benzodiazepine-3-carboxamide] | 7.30 | 6.34
CNC(=O)N1N=C(c2ccc(-c3ccc(O)nc3)cc2)c2cc(OC)c(OC)cc2CC1C (racemic) [Example 49, (±)-1-[4-(6-hydroxypyridin-3-yl)phenyl]-7,8-dimethoxy-N,4-dimethyl-4,5-dihydro-3H-2,3-benzodiazepine-3-carboxamide] | 7.40 | 6.38
CNC(=O)N1N=C(c2ccc(-c3ccc(S(=O)(=O)NC)cc3)cc2)c2cc(OC)c(OC)cc2CC1C (racemic) [Example 115, (±)-7,8-dimethoxy-N,4-dimethyl-1-[4′-(methylsulphamoyl)biphenyl-4-yl]-4,5-dihydro-3H-2,3-benzodiazepine-3-carboxamide] | 7.30 | 6.34
CNC(=O)N1N=C(c2ccc(-c3ccccc3OC(F)(F)F)cc2)c2cc(OC)c(OC)cc2CC1C (racemic) [Example 107, (±)-7,8-dimethoxy-N,4-dimethyl-1-[2′-(trifluoromethoxy)biphenyl-4-yl]-4,5-dihydro-3H-2,3-benzodiazepine-3-carboxamide] | 6.59 | 6.20
CNC(=O)N1N=C(c2cccc(-c3cnn(C)c3)c2)c2cc(OC)c(OC)cc2CC1C (racemic) [Example 54, (±)-7,8-dimethoxy-N,4-dimethyl-1-[3-(1-methyl-1H-pyrazol-4-yl)phenyl]-4,5-dihydro-3H-2,3-benzodiazepine-3-carboxamide] | 7.30 | 6.36
CNC(=O)N1N=C(c2ccc(-c3cnc(C)n3C)cc2)c2cc(OC)c(OC)cc2CC1C (racemic) [Example 47, (±)-1-[4-(1,2-dimethyl-1H-imidazol-5-yl)phenyl]-7,8-dimethoxy-N-dimethyl-4,5-dihydro-3H-2,3-benzodiazepine-3-carboxamide] | 6.96 | 6.28

Next, values leading:

pIC50 (BRD4 (BD1)) | pIC50 (MOLM-13 cells) | SMILES
7.30 | 6.40 | CNC(=O)N1N=C(c2ccc(N3CCC(NC(C)=O)CC3)cc2)c2cc(OC)c(OC)cc2CC1C (racemic) [Example 182, (±)-1-[4-(4-acetamidopiperidin-1-yl)phenyl]-7,8-dimethoxy-N,4-dimethyl-4,5-dihydro-3H-2,3-benzodiazepine-3-carboxamide]
7.05 | 6.96 | CNC(=O)N1N=C(c2ccc(N3CCN(CC(F)F)CC3)cc2)c2cc(OC)c(OC)cc2CC1C (racemic) [Example 193, (±)-1-{4-[4-(2,2-difluoroethyl)piperazin-1-yl]phenyl}-7,8-dimethoxy-N,4-dimethyl-4,5-dihydro-3H-2,3-benzodiazepine-3-carboxamide]
7.00 | 6.68 | CNC(=O)N1N=C(c2ccc(-c3c(C)noc3C)cc2)c2cc(OC)c(OC(F)F)cc2C[C@@H]1C [Example 162.1, (4S)-7-(difluoromethoxy)-1-[4-(3,5-dimethylisoxazol-4-yl)phenyl]-8-methoxy-N,4-dimethyl-4,5-dihydro-3H-2,3-benzodiazepine-3-carboxamide]
7.52 | 6.55 | CNC(=O)N1N=C(c2ccc(N3CCN(C)C(=O)C3)cc2)c2cc(OC)c(OC)cc2CC1C (racemic) [Example 138, (±)-7,8-dimethoxy-N,4-dimethyl-1-[4-(4-methyl-3-oxopiperazin-1-yl)phenyl]-4,5-dihydro-3H-2,3-benzodiazepine-3-carboxamide]
7.52 | 6.59 | CNC(=O)N1N=C(c2ccc(N3CCN(C)CC3)cc2)c2cc(OC)c(OC(F)F)cc2C[C@@H]1C [Example 163.2, (4S)-7-(difluoromethoxy)-8-methoxy-N,4-dimethyl-1-[4-(4-methylpiperazin-1-yl)phenyl]-4,5-dihydro-3H-2,3-benzodiazepine-3-carboxamide]
7.15 | 6.74 | CNC(=O)N1N=C(c2ccc(N3CCN(CCO)CC3)cc2)c2cc(OC)c(OC)cc2CC1C (racemic) [Example 178, (±)-1-{4-[4-(2-hydroxyethyl)piperazin-1-yl]phenyl}-7,8-dimethoxy-N,4-dimethyl-4,5-dihydro-3H-2,3-benzodiazepine-3-carboxamide]
5.79 | 5.52 | CNC(=O)N1N=C(c2ccc(-n3nc(-c4ccccc4)cc3C(F)(F)F)cc2)c2cc(OC)c(OC)cc2CC1C (racemic) [Example 149, (±)-7,8-dimethoxy-N,4-dimethyl-1-{4-[3-phenyl-5-(trifluoromethyl)-1H-pyrazol-1-yl]phenyl}-4,5-dihydro-3H-2,3-benzodiazepine-3-carboxamide]
6.51 | 6.09 | CNC(=O)N1N=C(c2ccc(N3CCC(O)CC3)cc2)c2cc(Cl)c(OC(F)(F)F)cc2CC1C (racemic) [Example 212, (±)-8-chloro-1-[4-(4-hydroxypiperidin-1-yl)phenyl]-N,4-dimethyl-7-(trifluoromethoxy)-4,5-dihydro-3H-2,3-benzodiazepine-3-carboxamide]
6.77 | 6.08 | CNC(=O)N1N=C(c2cccc(N3CCN(C)CC3)c2)c2cc(OC)c(OC)cc2CC1C (racemic) [Example 143, (±)-7,8-dimethoxy-N,4-dimethyl-1-[3-(4-methylpiperazin-1-yl)phenyl]-4,5-dihydro 3H-2,3-benzodiazepine-3-carboxamide]
6.96 | 6.32 | CNC(=O)N1N=C(c2ccc(-n3ncnc3C)cc2)c2cc(OC)c(OC)cc2CC1C (racemic) [Example 153, (±)-7,8-dimethoxy-N,4-dimethyl-1-[4-(5-methyl-1H-1,2,4-triazol-1-yl)phenyl]-4,5-dihydro-3H-2,3-benzodiazepine-3-carboxamide]
6.14 | 5.66 | CNC(=O)N1N=C(c2ccc(-c3c(C)noc3C)cc2)c2cc(N3CCOCC3)ccc2C[C@H]1C [Example 176.1, (4R)-1-[4-(3,5-Dimethylisoxazol-4-yl)phenyl]-N,4-dimethyl-8-(morpholin-4-yl)-4,5-dihydro-3H-2,3-benzodiazepine-3-carboxamide]
6.15 | 5.70 | CC[C@H]1Cc2cc(OC)c(OC)cc2C(c2ccc(N3CCN(C)CC3)cc2)=NN1C(=O)NC [Example 201.1, (4S)-4-ethyl-7,8-dimethoxy-N-methyl-1-[4-(4-methylpiperazin-1-yl)phenyl]-4,5-dihydro-3H-2,3-benzodiazepine-3-carboxamide]
6.21 | 6.07 | COc1cc2c(cc1OC)C(c1ccc(N3CCN(C)CC3)cc1)=NN(C(C)=O)C(C)C2 (racemic) [Example 245, (±)-1-{7,8-Dimethoxy-4-methyl-1-[4-(4-methylpiperazin-1-yl)phenyl]-4,5-dihydro-3H-2,3-benzodiazepin-3-yl}ethanone]
7.15 | 6.28 | CNC(=O)N1N=C(c2ccc(-c3c(C)noc3C)cc2)c2cc(OC)c(C#N)cc2CC1C (racemic) [Example 170, (±)-7-Cyano-1-[4-(3,5-dimethylisoxazol-4-yl)phenyl]-8-methoxy-N,4-dimethyl-4,5-dihydro-3H-2,3-benzodiazepine-3-carboxamide]
